The source made the active and inactive calls. No rule for the calls is given here.
System: rodent carcinogenicity bioassays, tumor incidence
Assay: CCRIS carcinogenicity studies
Details: Dose: 0
Outline: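 Archive of carcinogenicity, mutagenicity, tumor promotion and tumor inhibition results drawn from journals, NCI reports and other sources, expert-reviewed; covers 1985-2011 and is no longer updated.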

Measured: carcinogen call

O=[N+]([O-])c1cc2c3ccccc3ccc2c2ccccc12
active: Species: MOUSE, Strain/Sex: B6C3F1/MALE, Route: INTRAPERITONEAL, 400 NMOL IN 35 µL DMSO ON DAYS 1 (1/7 TOTAL DOSE), 8 (2/7 TOTAL DOSE), AND 15 (4/7 TOTAL DOSE) AFTER BIRTH (STUDY DUR, Tumor Site: Type of Lesion: LIVER: ADENOMA OR CARCINOMA, LUNG: TUMOR active; positive | Species: MOUSE, Strain/Sex: BLU:HA/FEMALE, Route: INTRAPERITONEAL, 38.5, 189 UG (TOTAL DOSE) GIVEN TO NEWBORN MICE IN 3 DOSES OF 1/7, 2/7 AND 4/7 OF THE TOTAL ON DAYS 1, 8 AND 15 RESPE, 38.5, 189 UG (TOTAL DOSE) GIVEN TO NEWBORN MICE IN 3 DOSES OF 1/7, 2/7 AND 4/7 OF THE TOTAL ON DAYS 1, 8 AND 15 RESPE, Tumor Site: Type of Lesion: LUNG: TUMORS active; positive | Species: MOUSE, Strain/Sex: BLU:HA/MALE, Route: INTRAPERITONEAL, 38.5, 189 UG (TOTAL DOSE) GIVEN TO NEWBORN MICE IN 3 DOSES OF 1/7, 2/7 AND 4/7 OF THE TOTAL ON DAYS 1, 8 AND 15 RESPE, 38.5, 189 UG (TOTAL DOSE) GIVEN TO NEWBORN MICE IN 3 DOSES OF 1/7, 2/7 AND 4/7 OF THE TOTAL ON DAYS 1, 8 AND 15 RESPE, Tumor Site: Type of Lesion: LUNG: TUMORS active; positive | Species: MOUSE, Strain/Sex: ICR/FEMALE, Route: INTRAPERITONEAL, 7.5, 15, 30 µL OF A 26.7 NMOL/UL DMSO SOLUTION ON 1,8, AND 15 D OF AGE RESPECTIVELY (TOTAL DOSE: 0; 1.4 UMOL) (STUDY, 7.5, 15, 30 µL OF A 26.7 NMOL/UL DMSO SOLUTION ON 1,8, AND 15 D OF AGE RESPECTIVELY (TOTAL DOSE: 0; 1.4 UMOL) (STUDY, Tumor Site: Type of Lesion: LUNG: ADENOMA active; positive | Species: MOUSE, Strain/Sex: ICR/FEMALE, Route: INTRAPERITONEAL, 7.7 UG TOTAL DOSE (1.1 UG/5 µL, 2.2 UG/10 µL, 4.4 UG/20 µL DMSO ON DAYS 1, 8 AND 15) ADMINISTERED TO NEWBORN ANIMALS, Tumor Site: Type of Lesion: LUNG: ADENOMA, ADENOCARCINOMA active; positive | Species: MOUSE, Strain/Sex: ICR/FEMALE, Route: INTRAPERITONEAL, 100 NMOL (TOTAL DOSE) ADMINISTERED IN 3 SUBDOSES OF 1/7, 2/7, AND 4/7 ON DAYS 1, 8 AND 15 OF LIFE, RESPECTIVELY (STUD, Tumor Site: Type of Lesion: LUNG: TUMORS active; positive | Species: MOUSE, Strain/Sex: ICR/MALE, Route: INTRAPERITONEAL, 7.5, 15, 30 µL OF A 26.7 NMOL/UL DMSO SOLUTION ON 1,8, AND 15 D OF AGE RESPECTIVELY (TOTAL DOSE: 0; 1.4 UMOL) (STUDY, 7.5, 15, 30 µL OF A 26.7 NMOL/UL DMSO SOLUTION ON 1,8, AND 15 D OF AGE RESPECTIVELY (TOTAL DOSE: 0; 1.4 UMOL) (STUDY, Tumor Site: Type of Lesion: LUNG: ADENOMA active; positive | Species: MOUSE, Strain/Sex: ICR/MALE, Route: INTRAPERITONEAL, 7.7 UG TOTAL DOSE (1.1 UG/5 µL, 2.2 UG/10 µL, 4.4 UG/20 µL DMSO ON DAYS 1, 8 AND 15) ADMINISTERED TO NEWBORN ANIMALS, Tumor Site: Type of Lesion: LUNG: ADENOMA, ADENOCARCINOMA active; positive | Species: MOUSE, Strain/Sex: ICR/MALE, Route: INTRAPERITONEAL, 100 NMOL (TOTAL DOSE) ADMINISTERED IN 3 SUBDOSES OF 1/7, 2/7, AND 4/7 ON DAYS 1, 8 AND 15 OF LIFE, RESPECTIVELY (STUD, Tumor Site: Type of Lesion: LUNG: TUMORS, LIVER: TUMORS active; positive | Species: MOUSE, Strain/Sex: SWISS/FEMALE, Route: INTRAPERITONEAL, 100, 700 NMOL (TOTAL DOSE) 1/7, 2/7 AND 4/7 ADMINISTERED ON DAYS 1, 8 AND 15 OF LIFE RESPECTIVELY (STUDY DURATION: 32, 100, 700 NMOL (TOTAL DOSE) 1/7, 2/7 AND 4/7 ADMINISTERED ON DAYS 1, 8 AND 15 OF LIFE RESPECTIVELY (STUDY DURATION: 32, Tumor Site: Type of Lesion: LUNG: TUMOR active; positive | Species: MOUSE, Strain/Sex: SWISS/FEMALE, Route: INTRAPERITONEAL, 100 NMOL (TOTAL DOSE) ADMINISTERED 1/7, 2/7 AND 4/7 ON DAY 1, 8 AND 15 RESPECTIVELY (STUDY DURATION: 32 WK), Tumor Site: Type of Lesion: LUNG: TUMOR active; positive | Species: MOUSE, Strain/Sex: SWISS/FEMALE, Route: INTRAPERITONEAL, 100 NMOL ON DAY 1 OF LIFE (STUDY DURATION: 32 WK), Tumor Site: Type of Lesion: LUNG: TUMOR, LIVER: TUMOR active; positive | Species: MOUSE, Strain/Sex: SWISS/MALE, Route: INTRAPERITONEAL, 100, 700 NMOL (TOTAL DOSE) 1/7, 2/7 AND 4/7 ADMINISTERED ON DAYS 1, 8 AND 15 OF LIFE RESPECTIVELY (STUDY DURATION: 32, 100, 700 NMOL (TOTAL DOSE) 1/7, 2/7 AND 4/7 ADMINISTERED ON DAYS 1, 8 AND 15 OF LIFE RESPECTIVELY (STUDY DURATION: 32, Tumor Site: Type of Lesion: LUNG: TUMOR, LIVER: TUMOR active; positive | Species: MOUSE, Strain/Sex: SWISS/MALE, Route: INTRAPERITONEAL, 100 NMOL (TOTAL DOSE) ADMINISTERED 1/7, 2/7 AND 4/7 ON DAY 1, 8 AND 15 RESPECTIVELY (STUDY DURATION: 32 WK), Tumor Site: Type of Lesion: LIVER: TUMOR, LUNG: TUMOR active; positive | Species: MOUSE, Strain/Sex: SWISS/MALE, Route: INTRAPERITONEAL, 100 NMOL ON DAY 1 OF LIFE (STUDY DURATION: 32 WK), Tumor Site: Type of Lesion: LUNG: TUMOR, LIVER: TUMOR active; positive | Species: RAT, Strain/Sex: CD-1/FEMALE, Route: INTRAPERITONEAL, 15, 30, 60, 150, 300 µL OF A 26.7 NMOL/UL SOLUTION ON 1, 8, 15, 22, AND 29 D OF AGE RESPECTIVELY (TOTAL DOSE: 0, 14.8, 15, 30, 60, 150, 300 µL OF A 26.7 NMOL/UL SOLUTION ON 1, 8, 15, 22, AND 29 D OF AGE RESPECTIVELY (TOTAL DOSE: 0, 14.8, Tumor Site: Type of Lesion: COLON: ADENOCARCINOMA, ADENOMA/DYSPLASIA active; positive | Species: RAT, Strain/Sex: CD-1/MALE, Route: INTRAPERITONEAL, 15, 30, 60, 150, 300 µL OF A 26.7 NMOL/UL DMSO SOLUTION ON 1, 8, 15, 22 AND 29 D OF AGE RESPECTIVELY (TOTAL DOSE: 0;, 15, 30, 60, 150, 300 µL OF A 26.7 NMOL/UL DMSO SOLUTION ON 1, 8, 15, 22 AND 29 D OF AGE RESPECTIVELY (TOTAL DOSE: 0;, Tumor Site: Type of Lesion: COLON: ADENOCARCINOMA, ADENOMA active; positive | Species: RAT, Strain/Sex: STRAIN-CD/ FEMALE, Route: INJECTION, 2.04 UMOL IN 0.1 ML DMSO INJECTED BENEATH EACH OF THREE LEFT THORACIC NIPPLES THEN ON THE NEXT DAY BENEATH EACH THE T, Tumor Site: Type of Lesion: MAMMARY GLAND: TUMOR active; positive | Species: RAT, Strain/Sex: STRAIN-CD/FEMALE, Route: INJECTION, 2.04 UMOL IN 100 µL DMSO INJECTED INTO 3 THORACIC MAMMARY GLANDS ON DAY 1 AND INTO 3 INQUINAL MAMMARY GLANDS ON DAY 2, Tumor Site: Type of Lesion: MAMMARY GLAND: FIBROADENOMA, ADENOCARCINOMA, SPINDLE CELL SARCOMA active; positive

Source: PubChem BioAssay AID1259411 (Chemical Carcinogenesis Research Information System (CCRIS), 2018)
